The values that follow come from patent US20240254140A1, “COMPOUNDS AND THEIR USE IN THE TREATMENT OF BACTERIAL INFECTION” (Hoffmann-La Roche Inc., priority 2021, published 2024).

In brackets after ≈: the same amount, converted by molar mass.

The subject of one test is Escherichia coli ATCC 25922. Briefly: Minimal Inhibitory Concentration (MIC) determination, broth microdilution. It is filed as cell-based. The following applies: ATCC25922; strain Escherichia coli ATCC 25922; broth microdilution per CLSI M07-A10; 18-24 hours at 35±2° C.; lowest concentration for complete growth inhibition. Here is the method:
Minimal Inhibitory Concentration (MIC) Determination:
The MIC of antibacterial compounds against multiple species and strains was determined using the broth microdilution method according to M07-A10 Clinical and Laboratory Standards Institute (CLSI) guidelines, using the appropriate broth medium. In short, the compound plates were prepared by dispensing 100 μL of each stock solution in the first well of a 96 well microtiter plate (MTP) at a concentration 100-fold higher than the final concentration desired in broth. Eleven serial 2-fold dilutions of the highest concentration were made in DMSO for new compounds and in water (or appropriate solution) for reference compounds [2]. 1 μL of each well was transferred in a new MTP, which served as the test plate by subsequent inoculation. This bacterial suspension was prepared from strains that were first sub-cultured on agar plates and incubated for 18-24 hours as appropriate. Following incubation, the inoculum was prepared from isolated colonies and adjusted to 0.5 McFarland turbidity standard (1 to 2×10^8 Colony Forming Units (CFU)/mL) in 0.9% saline. The bacterial suspension was then diluted 1:200 in appropriate sterile medium and within 15 minutes 100 μL/well were dispensed. Negative controls (lack of bacterial cells) and growth control wells (lack of compound) were included in all plates. MTPs were incubated for 18-24 hours at 35±2° C. in ambient air. The MIC value of each compound, expressed as μg/mL, was determined as the lowest concentration required for complete growth inhibition (no visible growth). • [1] CLSI (2015) Methods for dilution antimicrobial susceptibility tests for bacteria that grow aerobically; Approved Standard, Tenth Edition. CLSI Document M7-A10 (ISBN 1-56238-987-4). Wayne, PA: Clinical and Laboratory Standards Institute, 19087, USA. • [2] CLSI (2017) Performance Standards for Antimicrobial Susceptibility Testing; Twenty-Fifth Informational Supplement. CLSI Document M100-S27, CLSI, Wayne, Pennsylvania 19087, USA.
Table 1 provides the Minimal Inhibitory Concentrations (MIC) in micrograms per millilitre of the compounds of present invention obtained against the strain Escherichia coli ATCC 25922.
(In general: Dilution methods test growth across graded concentrations, often in twofold steps.)
`CN(C)C1(C(=O)Nc2cc(F)c3c(c2)CC(CNCCC2CN(c4cnc5c(n4)NC(=O)CO5)C(=O)O2)C3)CC1` (stereo not drawn) [Example 2]: the MIC (in general, the lowest concentration that inhibits growth of the organism) is 1 µg/mL (≈ 1.81 µM).

In turn, `Cl.N[C@@]1(C(=O)Nc2cc(F)c3c(c2)CC(CNCCC2CN(c4cnc5c(n4)NC(=O)CO5)C(=O)O2)C3)CCOC1` (stereo partly drawn) [Example 41, (3S)-3-amino-N-[7-fluoro-2-[[2-[2-oxo-3-(3-oxo-4H-pyrazino[2,3-b][1,4]oxazin-6-yl)oxazolidin-5-yl]ethylamino]methyl]indan-5-yl]tetrahydrofuran-3-carboxamide; hydrochloride] had an MIC of 1 µg/mL.

The molecule `C[C@H](C(=O)Nc1cc(C#N)c2c(c1)CC(O)(CNCCC1CN(c3cnc4c(n3)NC(=O)CO4)C(=O)O1)C2)N(C)C` (stereo partly drawn) [Example 34, (2R)-N-[7-cyano-2-hydroxy-2-[[2-[2-oxo-3-(3-oxo-4H-pyrazino[2,3-b][1,4]oxazin-6-yl)oxazolidin-5-yl]ethylamino]methyl]indan-5-yl]-2-(dimethylamino)propanamide] yielded an MIC of 4 µg/mL (≈ 7.08 µM).

In the case of `O=C1COc2ncc(N3CC(CCNCC4Cc5cc(NC(=O)[C@@H]6CCCN6)cc(F)c5C4)OC3=O)nc2N1` (stereo partly drawn) [Example 36, (2S)—N-[7-Fluoro-2-[[2-[2-oxo-3-(3-oxo-4H-pyrazino[2,3-b][1,4]oxazin-6-yl)oxazolidin-5-yl]ethylamino]methyl]indan-5-yl]pyrrolidine-2-carboxamide], the MIC turned out to be 0.25 µg/mL (≈ 0.463 µM).

Consider `N[C@@H](CC(=O)O)C(=O)Nc1cc(F)c2c(c1)CC(CNCCC1CN(c3cnc4c(n3)NC(=O)CO4)C(=O)O1)C2.O=C(O)C(F)(F)F` (stereo partly drawn) [Example 48, (3S)-3-amino-4-[[7-fluoro-2-[[2-[2-oxo-3-(3-oxo-4H-pyrazino[2,3-b][1,4]oxazin-6-yl)oxazolidin-5-yl]ethylamino]methyl]indan-5-yl]amino]-4-oxo-butanoic acid; 2,2,2-trifluoroacetic acid], for which the MIC was determined as 4 µg/mL.

Turning to `CN(CCC1CN(c2cnc3c(n2)NC(=O)CO3)C(=O)O1)CC1Cc2cc(NC(=O)[C@@H]3C[C@@H](O)CN3)cc(F)c2C1` (stereo partly drawn) [Example 63, (2S,4R)—N-[7-Fluoro-2-[[methyl-[2-[2-oxo-3-(3-oxo-4H-pyrazino[2,3-b][1,4]oxazin-6-yl)oxazolidin-5-yl]ethyl]amino]methyl]indan-5-yl]-4-hydroxy-pyrrolidine-2-carboxamide], the MIC came out at 0.25 µg/mL (≈ 0.439 µM).

The molecule `COC[C@@H](N)C(=O)Nc1cc(F)c2c(c1)CC(CNCCC1CN(c3cnc4c(n3)NC(=O)CO4)C(=O)O1)C2` (stereo partly drawn) [Example 39, (2R)-2-amino-N-[7-fluoro-2-[[2-[2-oxo-3-(3-oxo-4H-pyrazino[2,3-b][1,4]oxazin-6-yl)oxazolidin-5-yl]ethylamino]methyl]indan-5-yl]-3-methoxy-propanamide] showed an MIC of 0.5 µg/mL (≈ 0.92 µM).

Molecule `CO[C@@H]1C[C@@H](C(=O)Nc2cc(F)c3c(c2)CC(CNCCC2CN(c4cnc5c(n4)NC(=O)CO5)C(=O)O2)C3)N(C)C1` (stereo partly drawn) [Example 17, (2S,4R)-N-[7-fluoro-2-[[2-[2-oxo-3-(3-oxo-4H-pyrazino[2,3-b][1,4]oxazin-6-yl)oxazolidin-5-yl]ethylamino]methyl]indan-5-yl]-4-methoxy-1-methyl-pyrrolidine-2-carboxamide] gave an MIC of 1 µg/mL (≈ 1.71 µM).

As to `CN1C[C@H](O)C[C@H]1C(=O)Nc1cc(F)c2c(c1)CC(CN1CCC3(CC1)CN(c1cnc4c(n1)NC(=O)CO4)C(=O)O3)C2` (stereo partly drawn) [Example 64, (2S,4R)—N-[7-Fluoro-2-[[2-oxo-3-(3-oxo-4H-pyrazino[2,3-b][1,4]oxazin-6-yl)-1-oxa-3,8-diazaspiro[4.5]decan-8-yl]methyl]indan-5-yl]-4-hydroxy-1-methyl-pyrrolidine-2-carboxamide], the MIC is 0.25 µg/mL (≈ 0.42 µM).

The molecule `CN1CCC[C@H]1C(=O)Nc1cc(F)c2c(c1)CC(CNCCC1CN(c3cnc4c(n3)NC(=O)CO4)C(=O)O1)C2` (stereo partly drawn) [Example 10, (2S)-N-[7-fluoro-2-[[2-[2-oxo-3-(3-oxo-4H-pyrazino[2,3-b][1,4]oxazin-6-yl)oxazolidin-5-yl]ethylamino]methyl]indan-5-yl]-1-methyl-pyrrolidine-2-carboxamide] came in with an MIC of 0.125 µg/mL (≈ 0.226 µM).

`CN(C)C(C)(C)C(=O)Nc1cc(F)c2c(c1)CC(CN1CCC3(CC1)CN(c1cnc4c(n1)NC(=O)CO4)C(=O)O3)C2` (stereo not drawn) [Example 6] registered an MIC of 0.25 µg/mL (≈ 0.43 µM).

Molecule `Cc1nc(NC(=O)[C@@H](C)N(C)C)cc2c1CC(CN1CCC3(CC1)CN(c1cnc4c(n1)NC(=O)CO4)C(=O)O3)C2` (stereo partly drawn) [Example 29, (2R)-2-(dimethylamino)-N-[1-methyl-6-[[2-oxo-3-(3-oxo-4H-pyrazino[2,3-b][1,4]oxazin-6-yl)-1-oxa-3,8-diazaspiro[4.5]decan-8-yl]methyl]-6,7-dihydro-5H-cyclopenta[c]pyridin-3-yl]propanamide] showed an MIC of 0.5 µg/mL (≈ 0.886 µM).

As to `CC(C)(O)C(=O)Nc1cc(C#N)c2c(c1)CC(CNCCC1CN(c3cnc4c(n3)NC(=O)CO4)C(=O)O1)C2` (stereo not drawn) [Example 20], the MIC is 0.5 µg/mL (≈ 0.934 µM).

Take `Cc1cc(NC(=O)CN(C)C)nc2c1CC(CNCCC1CN(c3cnc4c(n3)NC(=O)CO4)C(=O)O1)C2` (stereo not drawn) [Example 24]: the MIC was 0.5 µg/mL (≈ 0.953 µM).

As to `O=C1COc2ncc(N3CC(CCNCC4Cc5cc(NC(=O)[C@H]6C[C@H](O)CN6)cc(F)c5C4)OC3=O)nc2N1` (stereo partly drawn) [Example 47, (2R,4S)-N-[7-fluoro-2-[[2-[2-oxo-3-(3-oxo-4H-pyrazino[2,3-b][1,4]oxazin-6-yl)oxazolidin-5-yl]ethylamino]methyl]indan-5-yl]-4-hydroxy-pyrrolidine-2-carboxamide], the MIC worked out at 0.25 µg/mL (≈ 0.45 µM).

For the molecule `CN1C[C@H](O)C[C@H]1C(=O)Nc1cc(F)c2c(c1)CC(CNCCC1CN(c3cnc4c(n3)NC(=O)CO4)C(=O)O1)C2` (stereo partly drawn) [Example 49, (2S,4R)—N-[7-Fluoro-2-[[2-[2-oxo-3-(3-oxo-4H-pyrazino[2,3-b][1,4]oxazin-6-yl)oxazolidin-5-yl]ethylamino]methyl]indan-5-yl]-4-hydroxy-1-methyl-pyrrolidine-2-carboxamide], the MIC was 0.25 µg/mL (≈ 0.439 µM).

In turn, `CC(C)(N)C(=O)Nc1cc(F)c2c(c1)CC(CNCCC1CN(c3cnc4c(n3)NC(=O)CO4)C(=O)O1)C2` (stereo not drawn) [Example 43, 2-amino-N-[7-fluoro-2-[[2-[2-oxo-3-(3-oxo-4H-pyrazino[2,3-b][1,4]oxazin-6-yl)oxazolidin-5-yl]ethylamino]methyl]indan-5-yl]-2-methyl-propanamide] registered an MIC of 0.25 µg/mL (≈ 0.474 µM).

For the molecule `CN1CCC[C@@H]1C(=O)Nc1cc(F)c2c(c1)CC(CNCCC1CN(c3cnc4c(n3)NC(=O)CO4)C(=O)O1)C2` (stereo partly drawn) [Example 14, (2R)-N-[7-fluoro-2-[[2-[2-oxo-3-(3-oxo-4H-pyrazino[2,3-b][1,4]oxazin-6-yl)oxazolidin-5-yl]ethylamino]methyl]indan-5-yl]-1-methyl-pyrrolidine-2-carboxamide], the MIC is 0.125 µg/mL (≈ 0.226 µM).

For the molecule `CC(C)(O)C(=O)Nc1cc(C#N)c2c(c1)CC(CNCCC1CN(c3ccc4c(n3)NC(=O)CO4)C(=O)O1)C2` (stereo not drawn) [Example 21, N-[7-cyano-2-[[2-[2-oxo-3-(3-oxo-4H-pyrido[3,2-b][1,4]oxazin-6-yl)oxazolidin-5-yl]ethylamino]methyl]indan-5-yl]-2-hydroxy-2-methyl-propanamide], the MIC came to 0.5 µg/mL (≈ 0.935 µM).

As for `O=C1COc2ncc(N3CC(CCNCC4Cc5cc(NC(=O)[C@H]6C[C@@H](O)CN6)cc(F)c5C4)OC3=O)nc2N1` (stereo partly drawn) [Example 45], the MIC is 1 µg/mL (≈ 1.8 µM).

Consider `O=C(O)C(F)(F)F.O=C1COc2ncc(N3CC4(CCN(CC5Cc6cc(NC(=O)[C@H]7NCC[C@@H]7O)cc(F)c6C5)CC4)OC3=O)nc2N1` (stereo partly drawn) [Example 54, (2S,3S)—N-[7-Fluoro-2-[[2-oxo-3-(3-oxo-4H-pyrazino[2,3-b][1,4]oxazin-6-yl)-1-oxa-3,8-diazaspiro[4.5]decan-8-yl]methyl]indan-5-yl]-3-hydroxy-pyrrolidine-2-carboxamide; 2,2,2-trifluoroacetic Acid], for which the MIC came out at 0.25 µg/mL.

As for `O=C1COc2ncc(N3CC4(CCN(CC5Cc6cc(NC(=O)[C@@H]7C[C@@H](O)CN7)cnc6C5)CC4)OC3=O)nc2N1` (stereo partly drawn) [Example 60, (2S,4R)-4-Hydroxy-N-[6-[[2-oxo-3-(3-oxo-4H-pyrazino[2,3-b][1,4]oxazin-6-yl)-1-oxa-3,8-diazaspiro[4.5]decan-8-yl]methyl]-6,7-dihydro-5H-cyclopenta[b]pyridin-3-yl]pyrrolidine-2-carboxamide], the minimal inhibitory concentration (MIC) turned out to be 0.5 µg/mL (≈ 0.886 µM).

The test is the same for the next values; noted with them: strain Escherichia coli ATCC 25922; broth microdilution per CLSI M07-A10; 18-24 hours at 35±2° C.; lowest concentration for complete growth inhibition.
As for `C[C@H](C(=O)Nc1cc(F)c2c(c1)CC(CNCC[C@H]1CN(c3cnc4c(n3)NC(=O)CO4)C(=O)O1)C2)N(C)C` (single isomer, unassigned) [Example 69], the “Escherichia coli growth inhibition MIC” value came to 0.125 µg/mL.

For the molecule `C[C@@]1(C(=O)Nc2cc(F)c3c(c2)CC(CN2CCC4(CC2)CN(c2cnc5c(n2)NC(=O)CO5)C(=O)O4)C3)C[C@@H](O)CN1` (single isomer, unassigned) [Example 73], the “Escherichia coli growth inhibition MIC” value was found to be 0.5 µg/mL.
